In patent US20240336622A1 (The Board of Regents of The University of Texas System, priority 2021, published 2024):
Like-named read-outs stand apart in the source and are kept apart here.

Experiments:
[1] = test system: UWB1, A673, Fadu, H2058, H1048, MDA-MB-468 cells; experiment: Cytotoxicity in cancer cell lines with different genetic background (cell titer glo); type: cell-based; settings: 1 μM for 96 hours
Text: Cells were then subjected to cell titer glo analysis. Data represent mean±SEM.

UWB1 cells [2] = test system: UWB1 cells
UWB1 cells [3] = experiment: cells; settings: read-out: IC50 (μM) UWB1 cells, UWB1 cell viability
PARP1 = PARP1 trapping activity of nimbolide analogs (FIGS. 19, 20); type: cell-based; settings: for PARP1 trapping by nimbolide analogs: FIGS. 19 and 20
H889 and H82 cells = experiment: Sensitivity of Talazoparib-resistant small cell lung cancer cells; type: cell-based

Structure (SMILES) | sensitivity of cell lines (UWB1, A673, Fadu, H2058, H1048, MDA-MB-468) [1] | IC50 (UWB1 cells [3]) [µM] | PARP1 trapping by nimbolide analogs (PARP1) | other results
O=C(c1cc(Cc2n[nH]c(=O)c3ccccc23)ccc1F)N1CCN(C(=O)C2CC2)CC1 [Olaparib, olaparib] | different degrees of sensitivity | – | – | –
CNCc1ccc(-c2[nH]c3cc(F)cc4c3c2CCNC4=O)cc1 [Rucaparib, rucaparib] | different degrees of sensitivity | – | – | –
COC(=O)C[C@H]1[C@]2(C)C3=C(C)[C@H](c4ccoc4-c4ccc(O[Si](C)(C)C(C)(C)C)cc4)C[C@H]3O[C@@H]2[C@@H]2OC(=O)[C@]3(C)C=CC(=O)[C@@]1(C)[C@@H]23 [S-46] | – | 0.089 | induce PARP1 trapping | cytotoxicity against UWB1 cells (UWB1 cells [2]): excellent cytotoxicity; trapping activity compared to nimbolide (PARP1; FIG. 19): more potent trapping activity
COC(=O)C[C@H]1[C@]2(C)C3=C(C)[C@H](C4=CC(=O)OC4OC(C)=O)C[C@H]3O[C@@H]2[C@@H]2OC(=O)[C@]3(C)C=CC(=O)[C@@]1(C)[C@@H]23 (stereo partly shown) [S-51] | – | – | – | IC50 (UWB1 cells [2]; read-out: IC50 (μM) UWB1 cells, UWB1 cell viability): 0.954 µM
C=C1[C@H](O[C@H]2CCC(C)=C2I)[C@@H]2OC(=O)[C@]3(C)C=CC(=O)[C@@](C)([C@@H]23)[C@H]1CC(=O)OC [S-84] | – | 0.183 | induce profound PARP1 trapping | –
Cn1ncnc1[C@H]1c2n[nH]c(=O)c3cc(F)cc(c23)N[C@@H]1c1ccc(F)cc1 [Talazoparib, talazoparib] | – | – | – | sensitivity of H889 and H82 cells (H889 and H82 cells): resistant
